{"source": "patent EP4527843A1", "about": "“STEREOISOMERIC PHOSPHATIDYLOLIGOGLYCEROL” (Thermosome GmbH, priority 2023, dated 2025)", "key": {"Phospholipase A2": {"molecular_target": "T1, Phospholipase A2 (Sus scrofa, UniProt P00592)", "T1 construct": "commercially available enzyme (extracted from porcine pancreas) was used; purchased; host or cells: porcine pancreas (tissue extract)", "T1 sequence (P00592 23-146)": "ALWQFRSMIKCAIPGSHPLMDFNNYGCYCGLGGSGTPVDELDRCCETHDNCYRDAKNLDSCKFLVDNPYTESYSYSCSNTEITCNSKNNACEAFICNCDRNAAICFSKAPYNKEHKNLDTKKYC", "test": "Stereospecific cleavage of DPPG2 with Phospholipase A2 (HPLC/CAD)", "assay_type": "in vitro ADME, porcine", "conditions": "0.5 U enzyme; for DPPG2 still detectable in the sample: after 10 min, 2 µmol lipid, Tris-buffer pH 8.5 with CaCl2, 37°C, normalized to t=0 min", "protocol": "Phospholipases are enzymes that selectively cleave bonds in glycerophospholipids based on their stereochemistry. They play a role in the metabolization of glycerophospholipids in vivo. Phospholipase A2 hydrolyzes 1,2-acyl-sn-glycero-3-phospholipids to their 1-acyl-sn-glycero-3-phospholipid and the corresponding fatty acid. For the experiments, commercially available enzyme (extracted from porcine pancreas) was used. Lipid samples (2 µmol) were dissolved 1.5 wt% deoxycholate and subsequently incubated in Tris-buffer pH 8.5 supplemented with CaCl2 together with 0.5 U enzyme in a thermoshaker at 37°C. At distinct time points, samples were taken and cleavage was analyzed by HPLC. […] The analytes are separated using a gradient elution using 100 mM NH4Ac pH 6.0 in water and methanol as eluent A and eluent B, respectively. Column oven was set to 35°C.\nThree DPPG2 batches differing in configurations of the stereogenic centers in their diglycerol headgroup were tested and DPPC was applied as control glycerophospholipid (Figure 2). […] After 10 min, 14.8%, 20.4%, and 24.3% of DPPG2 according to WO 9730058, WO 2014/202680 A1, and Formula III, respectively, was still detectable in the sample."}, "[1]": {"test": "Accumulation of DOX in tumor tissue and organs, rat BN175 sarcoma model", "assay_type": "in vivo, Brown Norway rats", "conditions": "male, Brown Norway, rat, 60 min after i.v. bolus 2 mg/kg DOX", "experimental": "(§1) Eighteen anaesthetized tumor-bearing male Brown Norway rats (-300 g) received a dose of 2 mg/kg DOX of either non-liposomal DOX (n = 6), DPPG2-TSL-DOX (DPPG2 according to formula III) (n = 6), or DPPG2-TSL-DOX (DPPG2 according to WO 97/30059) (n = 6) as i.v. bolus injection, respectively. All animals had two BN175 tumors (soft tissue sarcoma) subcutaneously implanted to each hind leg, respectively. One tumor received 60 min of a local HT treatment with a light source of 41.5°C, whereas the second tumor remained untreated (room temperature, NT). […] Animals were sacrificed after 60 min, organs were perfused, and tumors and organs were collected. DOX content was measured in plasma by HPLC equipped with a fluorescence detector."}, "[2]": {"tested_on": "BN175 tumors (soft tissue sarcoma)", "test": "Accumulation of DOX in tumor tissue and organs, rat BN175 sarcoma model", "assay_type": "in vivo, Brown Norway rats", "experimental": "as §1"}, "[3]": {"tested_on": "BN175 tumor (soft tissue sarcoma)", "conditions": "2 mg/kg DOX single i.v. bolus in combination with 60 min lamp HT (41°C); ranking in words", "experimental": "Finally, the therapeutic efficacy of both DPPG2-TSL-DOX formulations was investigated in vivo and compared to selected clinically relevant DOX formulations (e.g., non-liposomal DOX, Caelyx). […] All animals had one BN175 tumor (soft tissue sarcoma) s.c. implanted to one hind leg. Local HT treatment was performed with a light source. Target temperature was 41 °C. Animals were preheated to this temperature for 30 min and temperature was maintained at 41 °C for 60 min after i.v. bolus injection. Animals treated with a DOX formulation received 2 mg/kg DOX as single i.v. bolus injection after one tumor diameter was > 5 mm. After the end of the treatment, animals were placed back into a cage and tumor growth was monitored every 2nd day until reaching an end point (e.g., tumor diameter > 3 cm, exulzeration, bleeding, skin toxicity)."}, "[4]": {"test": "PK study in healthy rats after i.v. bolus, normothermia", "assay_type": "in vivo, Brown Norway rats", "conditions": "2 mg/kg DOX i.v. bolus, rat; result in words", "protocol": "For the PK study, 18 anaesthetized healthy male Brown Norway rats (-300 g) received a dose of 2 mg/kg DOX of either non-liposomal DOX (n = 6), DPPG2-TSL-DOX (DPPG2 according to formula III) (n = 6), or DPPG2-TSL-DOX (DPPG2 according to WO 97/30059) (n = 6) as i.v. bolus injection, respectively. Body temperature of the animals was controlled via a rectal temperature probe. During anesthesia, the body temperature of animals was maintained by a water bath (37°C). Blood samples were taken at defined time points. DOX and DPPG2 content were measured in plasma by HPLC equipped with a fluorescence detector and LC/MS, respectively."}}, "note": "Like-named read-outs stand apart in the source and are kept apart here."}
{"smiles": "CCCCCCCCCCCCCCCC(=O)OC[C@H](COP(=O)([O-])OCC[N+](C)(C)C)OC(=O)CCCCCCCCCCCCCCC", "note": "[DPPC, 1,2-dipalmitoyl-sn-glycero-3-phosphocholine]", "values": [{"measurement": "cleavage by phospholipase A2 compared with DPPG2", "setting": "Phospholipase A2; control glycerophospholipid, 37°C", "result": "cleaved notably slower than DPPG2"}]}
{"smiles": "CCCCCCCCCCCCCCCC(=O)OC[C@H](COP(=O)(O)OCC(O)COCC(O)CO)OC(=O)CCCCCCCCCCCCCCC", "note": "(mixture of isomers) [DPPG2 according to WO 9730058, 1,2-Dipalmitoyl-sn-glycero-3-phospho-rac-diglycerol]", "values": [{"measurement": "DPPG2 still detectable in the sample", "setting": "Phospholipase A2", "result": 14.8, "unit": "%"}]}
{"smiles": "CCCCCCCCCCCCCCCC(=O)OC[C@H](COP(=O)(O)OC[C@@H](O)COCC(O)CO)OC(=O)CCCCCCCCCCCCCCC", "note": "(stereo partly shown) [DPPG2 according to WO 2014/202680 A1, 1,2-Dipalmitoyl-sn-glycero-3-phospho-sn-1'-diglycerol]", "values": [{"measurement": "DPPG2 still detectable in the sample", "setting": "Phospholipase A2", "result": 20.4, "unit": "%"}]}
{"smiles": "CCCCCCCCCCCCCCCC(=O)OC[C@H](COP(=O)(O)OC[C@@H](O)COC[C@H](O)CO)OC(=O)CCCCCCCCCCCCCCC", "note": "[DPPG2 according to Formula III, 1,2-dipalmitoyl-sn-glycero-3-phospho-sn-1'-glycero-sn-3\"-glycerol]", "values": [{"measurement": "DPPG2 still detectable in the sample", "setting": "Phospholipase A2", "result": 24.3, "unit": "%"}]}
{"smiles": "COc1cccc2c1C(=O)c1c(O)c3c(c(O)c1C2=O)C[C@@](O)(C(=O)CO)C[C@@H]3O[C@H]1C[C@H](N)[C@H](O)[C@H](C)O1", "note": "[non-liposomal DOX, doxorubicin]", "values": [{"measurement": "concentration at 60 min", "setting": "[1]; heated BN175 tumor (HT 41.5°C), iv, HT 41.5°C, read-out: DOX concentration in the heated tumors", "result": "3100 ± 500", "unit": "ng/g"}, {"measurement": "concentration at 60 min", "setting": "[1]; untreated BN175 tumor (NT, iv), NT, room temperature, read-out: DOX concentration in the untreated tumors", "result": "1900 ± 300", "unit": "ng/g"}, {"measurement": "DOX accumulation in lung and heart compared to both DPPG2-TSL-DOX formulations", "setting": "[2]; 60 min after i.v. bolus 2 mg/kg DOX, result in words", "result": "significantly higher"}, {"measurement": "increase of DOX tumor accumulation by HT application (compared to the content in the untreated tumors)", "setting": "[2]; 60 min local HT 41.5°C light source vs untreated tumor, 2 mg/kg DOX i.v.", "result": 1.6, "unit": "fold"}, {"measurement": "survival (Kaplan-Meier, 5-fold increase in tumor volume) / therapeutic efficacy", "setting": "[3]", "result": "comparable"}, {"measurement": "DOX plasma clearance", "setting": "[4]", "result": "cleared within minutes"}]}
